Measurements from patent US20260097133A1, “EPIGENETIC EDITING TOOL FOR TARGETING HEPATITIS B VIRUS GENE” (priority 2023, published 2026).

Assays:
Assay type in all cases: cell-based
Settings in all cases: sgRNA in GFP-negative cell population, day 14 after transfection of EPIREG
[1] = system: type D HBV surface antigen (HBsAg) reporter cell line; assay: sgRNA lentiviral library screening, HBsAg reporter cell line (NGS reads in GFP-negative cells)
Source text: (§1) In this example, the type D HBV X protein (HBx), core antigen (HBcAg), and surface antigen (HBsAg) reporter cell lines were used for library screening. First, a sgRNA cell library of type D HBV gene was constructed using a reporter cell line according to the method described in example 1. The sgRNA library was packaged into lentivirus to obtain a sgRNA lentiviral library (carrying red fluorescence), the reporter cell line was infected with the lentiviral library, and the red fluorescence was sorted to obtain the sgRNA cell library. Each cell in this sorted cell library integrated a single sgRNA in the library while the cell itself carried a reporter sequence (carrying green fluorescence). The EPIREG tool described in example 2 (the amino acid sequence of the tool was SEQ ID NO: 1194) (carrying blue fluorescence) was transfected and delivered into a cell library carrying both sgRNA and reporter sequences. Red/green/blue fluorescent triple-positive cells were sorted using a flow cytometer and cultured long-term. The EPIREG transfected into the cells could work together with the sgRNA to silence GFP in the reporter. On the day 14 after transfection, the GFP-negative cell population in the cell library was sorted, the genomic DNA of the negative cell population was extracted for NGS sequencing. The sgRNAs with higher sequencing reads in the negative cell population were compared using the untreated cell library as a control reference, so as to obtain the candidate sgRNAs that could play an editing role corresponding to each reporter, respectively (the schematic diagram of this screening scheme is shown in FIG. 6, and the analysis method is referenced to the literature DOI: 10.1186/s13059-014-0554-4). The functionally validated sgRNAs for each reporter cell line are summarized in the following table (arranged by the starting position of the target sequence of each sgRNA).

[2] = system: type D HBV core antigen (HBcAg) reporter cell line; assay: sgRNA lentiviral library screening, HBcAg reporter cell line (NGS reads in GFP-negative cells)
Source text: as §1

[3] = system: type D HBV X protein (HBx) reporter cell line; assay: sgRNA lentiviral library screening, HBx reporter cell line (NGS reads in GFP-negative cells)
Source text: as §1

Substance	Log2 FC [1]	Log2 FC [2]	Log2 FC [3]
27 (guide AACAAGAGATGATTAGGCAG; listed as DNA, chemistry not fully specified) [compound 27]	1.3821		
62 (guide AATGTCAACGACCGACCTTG; listed as DNA, chemistry not fully specified) [compound 62]	1.5364	2.2035	
88 (guide ACATCGTATCCATGGCTGCT; listed as DNA, chemistry not fully specified) [compound 88]	1.2095	3.4446	3.4448
112 (guide ACCTTTGGATAAAACCTAGC; listed as DNA, chemistry not fully specified) [compound 112]	1.203		
121 (guide ACTACTGTTGTTAGACGACG; listed as DNA, chemistry not fully specified) [compound 121]	1.0553		
127 (guide ACTGGCTGGGGCTTGGTCAT; listed as DNA, chemistry not fully specified) [compound 127]	1.3983	2.0792	7.231
145 (guide AGACTGGGAGGAGTTGGGGG; listed as DNA, chemistry not fully specified) [compound 145]	1.8314	3.5473	
150 (guide AGAGAGGTGCGCCCCGTGGT; listed as DNA, chemistry not fully specified) [compound 150]	1.453		3.8671
161 (guide AGATTAAAGGTCTTTGTACT; listed as DNA, chemistry not fully specified) [compound 161]	1.8238	2.5156	
211 (guide AGTCCCAAGCGACCCCGAGA; listed as DNA, chemistry not fully specified) [compound 211]	1.5263	4.4175	4.6655
215 (guide AGTCTTTGAAGTATGCCTCA; listed as DNA, chemistry not fully specified) [compound 215]	1.3799	2.1589	
227 (guide ATAGAGTATTTGGTGTCTTT; listed as DNA, chemistry not fully specified) [compound 227]	0.9275		
242 (guide ATCCTGCGGACGACCCTTCT; listed as DNA, chemistry not fully specified) [compound 242]	0.8809		
270 (guide ATTTGCTGTGTTTGCTCTGA; listed as DNA, chemistry not fully specified) [compound 270]	1.397		
410 (guide CCCGTTGCCCGGCAACGGCC; listed as DNA, chemistry not fully specified) [compound 410]	1.9735		
467 (guide CGACCCTTCTCGGGGTCGCT; listed as DNA, chemistry not fully specified) [compound 467]	1.8988	2.0481	2.9245
483 (guide CGCCCCGTGGTCGGTCGGAA; listed as DNA, chemistry not fully specified) [compound 483]	2.4519	4.8386	6.4685

Substance	Log2 FC [1]	Log2 FC [2]	Log2 FC [3]
593 (guide GAATCCCAGAGGATTGCTGG; listed as DNA, chemistry not fully specified) [compound 593]	0.9124		
598 (guide GACATGAACAAGAGATGATT; listed as DNA, chemistry not fully specified) [compound 598]	1.4722	4.6761	
668 (guide GCAGAGGTGAAAAAGTTGCA; listed as DNA, chemistry not fully specified) [compound 668]	1.297	1.9744	
671 (guide GCAGCACAGCCTAGCAGCCA; listed as DNA, chemistry not fully specified) [compound 671]	1.2918		
774 (guide GGGGCGCACCTCTCTTTACG; listed as DNA, chemistry not fully specified) [compound 774]	1.1527		3.0494
829 (guide GTCCTCTTATGTAAGACCTT; listed as DNA, chemistry not fully specified) [compound 829]	0.9029		
839 (guide GTCTTACATAAGAGGACTCT; listed as DNA, chemistry not fully specified) [compound 839]	1.3376		
958 (guide TCCTGCGGACGACCCTTCTC; listed as DNA, chemistry not fully specified) [compound 958]		3.1878	3.9999
998 (guide TCTTTGTACTAGGAGGCTGT; listed as DNA, chemistry not fully specified) [compound 998]	2.1989	4.2906	
1006 (guide TGACCAAGCCCCAGCCAGTG; listed as DNA, chemistry not fully specified) [compound 1006]		4.2194	7.0191
1008 (guide TGACGCAACCCCCACTGGCT; listed as DNA, chemistry not fully specified) [compound 1008]		1.8835	4.9717
1025 (guide TGCCCAAGGTCTTACATAAG; listed as DNA, chemistry not fully specified) [compound 1025]	1.4524	2.0852	
1028 (guide TGCCGTTCCGACCGACCACG; listed as DNA, chemistry not fully specified) [compound 1028]	0.8922	3.8548	
1065 (guide TGGTCGGTCGGAACGGCAGA; listed as DNA, chemistry not fully specified) [compound 1065]		2.8985	6.0793
1072 (guide TGTAGTATGCCCTGAGCCTG; listed as DNA, chemistry not fully specified) [compound 1072]	1.1325		
1084 (guide TTAAAGGTCTTTGTACTAGG; listed as DNA, chemistry not fully specified) [compound 1084]	1.0831		
1132 (guide TTTACCCCGTTGCCCGGCAA; listed as DNA, chemistry not fully specified) [compound 1132]		2.1043	4.252
